Several values for one entry are separate records, joined by “and”; a condition that tells them apart may be missing. Equal entries are not always repeated.
Key:
[1] = HepaRG cellular metabolic stability; conditions: human, other cell line; for hepatocyte CLint at 20 μM: HepaRG Clint,u, calculated from cellular t1/2; for half-life at 20 μM: HepaRG t1/2, after 3 h loading at 20 μM, 37 °C
Description: Naturally, due the metabolic complexity of HepaRG cells, we specifically analyzed prodrug cellular uptake and stability, as represented by Cmax and intrinsic clearance (Clint,u) accordingly (Figure 7 and Table 9).
The HepaRG cell line (HPRGC10, Thermo Fisher Scientific) was used to evaluate the cellular permeability and metabolic stability for select final compounds in vitro. The cells were initially thawed with working media composed of HepaRG Thaw, Plate, & General Purpose Medium Supplement (HPRG670), Williams Medium E (100 mL), and GlutaMax (1 mL), all purchased from Thermo Fisher Scientific. […] After the thawing medium was aspirated from each well, the cells were cultured for an additional 6 days with working media consisting of HepaRG Maintenance/Metabolism Medium Supplement (HPRG720), Williams Medium E (500 mL), and GlutaMax (1 mL), all purchased from Thermo Fisher Scientific. Upon completing the 7-day culture period, HepaRG cells were plated in enough wells to allow for duplicate analysis of prodrugs in two independent cellular uptake or metabolic stability experiments. All studied compounds were formulated with human serum albumin (HSA, 5:1 compound to HSA molar ratio) and subsequently diluted to a 20 μM final concentration with assay medium composed of serum-free INVITROGRO HI Medium and TORPEDO Antibiotic Mix purchased from BioIVT. For cellular uptake determinations, the maintenance/metabolism medium was first aspirated from each well, and then the plated cells were spiked with 1.0 mL of test compound stock solution. Subsequently, the plate was incubated at 37 °C under 5% CO2 environment over the desired time course (seven data points/compound). Blank wells not treated with prodrug were included in assay runs as controls and initial time points (0 min). At each time point, the test compound solution was removed from the appropriate wells, and the plated cells were washed with 1.0 mL of DPBS twice. The HepaRG cells were then extracted with 500 μL of cold ISTD solution (1 μM 7-ethoxy-d5-coumarin in 70/30 MeOH/H2O), and the quenched aliquots were centrifuged at 15,000 g for 10 min at 4 °C. […] After obtaining prodrug Cmax and Tmax values from the cellular uptake assay, HepaRG metabolic stability was then assessed. Following the initial 7-day culture procedure, the maintenance/metabolism medium was aspirated from each well, and the plated cells were spiked with 1.0 mL of test compound stock solution. […] The test compound solution was then removed from each well and replaced with untreated dilution medium (i.e., serum-free INVITROGRO HI Medium and TORPEDO Antibiotic Mix), initializing the stability determination. The HepaRG plate was once more incubated at 37 °C under 5% CO2 atmosphere over the desired time course (nine data points/compound), and sample preparation and analysis were handled in identical fashion to cellular uptake experiments.

[2] = Human liver microsome stability; conditions: for remaining at 2 h, 3 μM / half-life at 3 μM: human, microsomes; for remaining at 2 h, 3 μM: HLM % remaining, relative percent remaining of prodrug at 120 min; for half-life at 3 μM: HLM t1/2, HLM 1 mg/mL
Description: (§1) Human liver microsomes (HLMs, 20 mg/mL) and CD-1 mouse liver microsomes (MLMs, 20 mg/mL) were purchased from Xenotech. NADPH was purchased from Sigma-Aldrich and prepared in 10 mM stock solutions of distilled H2O (Invitrogen UltraPure). […] Test compounds and positive controls were initially dissolved in MeOH to make 10 mM stock solutions. Sample solutions were then further diluted in 70/30 MeOH/H2O to 500 μM. Next, the reactions were prepared by mixing human or mouse liver microsomes (55 μL) with potassium phosphate buffer (100 mM, 928 μL) in 1.5 mL Eppendorf tubes. The test compounds (6.6 μL of 500 μM solution) were subsequently added to the suspensions, and the reaction mixtures were incubated at 37 °C for 5 min. Afterward, the liver microsome reactions were initiated with 110 μL of 10 mM NADPH and further incubated at 37 °C for the designated time course of the study. […] Each test compound was run in tandem with positive and negative control experiments for quality assurance. Positive control reactions were conducted at a final volume of 550 μL for a single run of each time point.
(§2) For both LM and plasma stability assays, each data point was analyzed in duplicate using in-between blank washes to avoid carry over and to equilibrate the column for the subsequent runs. Averages of these duplicate for individual compounds at each time point were then normalized to the data at 0 min, representing 100% test compound remaining or 0% metabolism. Half-lives (t1/2) were calculated by plotting ln of % test compound remaining versus time and performing linear regression to determine slope.
(§3) Metabolic Stability Assays
(§4) Liver Microsome Stability
(§5) Liver Microsome Stability Assay Setup Example
(§6) Quenching Mixture: 100 µL MeOH with ISTD (2 µM d5-7-ethoxycoumarin).
(§7) Final Volume After Quenching: 200 µL (100 µL from reaction mixture + 100 µL quencher
(§8) solution; ISTD final concentration of 1.0 µM).

[3] = Mouse plasma pharmacokinetics after oral dose; type: in vivo, male C57BL/6 mice; conditions: for bioavailability: oral; for bioavailability / bioavailability at 24 h: p.o. 10 mg/kg vs i.v. 3 mg/kg, read-out: %F (oral bioavailability); for AUC(0-t) at 24 h: read-out: AUC0–24h; for mean TFV concentration in plasma: p.o. 10 mg/kg of prodrug, LLOQ 4.84 ng/mL; for concentration at 0.25 h / mean TFV concentration in plasma: 0.25 h; for k (terminal elimination rate constant): 10 mg/kg
Description: To compare the in vivo PK profiles to TXL and our previously reported drug lead 1 (Tables S19 and S26),[39] one group of male C57BL/6 mice were administered a single oral dose (p.o., 10 mg/kg) of 2a, 16g, or 16h (refer to Experimental Methods). Additionally, a separate group of mice were given a single intravenous dose (i.v., 3 mg/kg) of each prodrug to obtain plasma clearance (Cl), volume of distribution (Vd), and oral bioavailability data. Blood was sampled at 8 time points over 8 h (i.v.) or 24 h (p.o.) postdose, and plasma was isolated via centrifugation. Tissues (liver, kidney, and brain) were also harvested and homogenized at 3 time points over 24 h after oral dose. The concentrations of prodrug and TFV metabolite in each of these samples was then quantified using LC–MS/MS methodology.
Healthy male C57BL/6 mice (8–12 weeks old) weighing 20–30 g were procured from Global, India. Three mice were housed in each cage. Temperature and humidity were maintained at 22 ± 3 °C and 30–70%, respectively, and illumination was controlled to provide for 12 h light and 12 h dark cycles. Temperature and humidity were recorded by an autocontrolled data logger system. All animals were provided a laboratory rodent diet (Envigo Research private Ltd., Hyderabad). Reverse osmosis H2O treated with ultraviolet light was provided ad libitum.
Male mice were divided into two groups (n = 18 total, n = 9 per treatment group, n = 3 per time point, sparse sampling). One group was intravenously administered a solution of 2a, 16g, and 16h in 10% PEG-300, 10% Solutol HS-15, and 80% saline at 3 mg/kg with a dosing volume of 5 mL/kg. The second group was administered a solution of 2a, 16g, and 16h in 10% EtOH and 90% olive oil at 10 mg/kg via oral gavage with a dosing volume of 10 mL/kg.
Blood samples (approximately 60 μL) were collected from retro-orbital plexus under light isoflurane anesthesia such that the samples were obtained predose, as well as at eight time points post dose: 0.1, 0.25, 0.5, 1, 2, 4, 6, and 8 (i.v.) and 0.25, 0.5, 1, 2, 4, 8, 12, and 24 h (p.o.). Immediately after blood collection, plasma samples were harvested by centrifugation at 4000 rpm and 4 °C for 10 min and stored at −70 °C until LC–MS/MS analysis. Following blood collection from p.o. group, liver, kidney, and brain samples were collected (n = 3 per treatment group per time point) at 1, 4, and 24 h post dose. After isolation, tissue samples were rinsed three times with ice-cold saline and dried with blotting paper. Next, the tissue samples were homogenized using ice-cold PBS (pH = 7.4), and the resulting homogenates were stored below −70 °C until LC-MS/MS analysis. The total homogenate volume was 3 times the brain weight and 5 times the liver and kidney weight.
Areas under the concentration–time curves (AUC0–8h and AUC0–24h) were calculated via the linear trapezoidal rule[65] using GraphPad Prism v9. Furthermore, terminal elimination rate constants k were determined using linear regression (slope = −k) of the terminal portion of semilog-transformed concentration–time curves (Figures S44, S45, S47, S48, S50, and S51).

[4] = Mouse liver microsome stability; conditions: CD-1, mouse, microsomes
Description: as §1, §2, §3, §4, §5, §6, §7, §8

[5] = male, C57BL/6, mouse, plasma, po
[6] = male, C57BL/6, mouse, plasma, po, p.o. 10 mg/kg, read-out: mean prodrug concentration in plasma
[7] = male, C57BL/6, mouse, po, plasma, p.o. 10 mg/kg
[8] = male, C57BL/6, mouse, po, plasma, prodrug, p.o. 10 mg/kg
[9] = p.o. 10 mg/kg, 24 h, BLQ = below LLOQ (0.58 ng/mL 2a, 0.62 ng/mL 16g)
[10] = 3 μM compound, NADPH, 37 °C, 120 min course

Row | SMILES | hepatocyte CLint at 20 μM [1] [µL/min/1e6 cells] | half-life at 20 μM [1] [h] | bioavailability ([3]; male, C57BL/6, mouse, plasma) [%] | bioavailability at 24 h [3, 5] [%] | concentration at 0.25 h [3, 6] [ng/mL] | concentration at 0.5 h [3, 6] [ng/mL] | concentration at 1 h [3, 6] [ng/mL] | concentration at 2 h [3, 6] [ng/mL] | concentration at 4 h [3, 6] [ng/mL] | concentration at 8 h [3, 6] [ng/mL] | concentration at 12 h [3, 6] [ng/mL] | half-life at 24 h [3, 7] [h] | Cmax at 24 h [3, 8] [ng/mL] | Tmax [3, 8] [h] | AUC(0-t) at 24 h [3, 8] [ng·h/mL] | mean TFV concentration in plasma [3] | Vd ([3]; plasma, p.o. 10 mg/kg) [L/kg] | k (terminal elimination rate constant) ([3]; plasma, p.o. 10 mg/kg) | half-life at 3 μM [4] [h] | remaining at 2 h, 3 μM [4] [%] | further results
1 | CCCCCCCCCCCCCCCCSCCCOP(=O)(O)CO[C@H](C)Cn1cnc2c(N)ncnc21.N [2a] | 14.1 | 1.49 ± 0.00667 | 20 | 19.3 | 29.6 | 51.8 | 73.3 | 48 | 8.34 | 7.1 | 7.6 | 3.49 | 73.3 | 1 | 219 | BLQ | 44.4 | 0.1985 and 0.199 | > 2 | > 95 | HLM t1/2 ([2]; HLM 1 mg/mL, 3 μM compound, NADPH, 37 °C, 120 min course): 0.7 h and 0.695 ± 0.0383 h; mean prodrug concentration in plasma [3, 9]: BLQ
2 | C[C@H](Cn1cnc2c(N)ncnc21)OCP(=O)(O)OCCCSCCCCCCCCCCCCc1ccc(F)cc1.N [16g] | 27 | 0.783 | 20 | 20.9 | 17 | 43 | 58.6 | 55.9 | 16 | 11.2 | 10.5 | 4.19 | 58.6 | 1 | 260 | BLQ | 48.7 | 0.1654 and 0.165 | > 2 | 88 | remaining at 2 h, 3 μM [2]: 69%; half-life at 3 μM [2, 10]: > 2 h; mean prodrug concentration in plasma [3, 9]: BLQ
3 | C[C@H](Cn1cnc2c(N)ncnc21)OCP(=O)(O)OCCCSCCCCCCCCCCCCC1CCCCC1.N [16h] | 18 to 19 | 1.12 to 1.18 | 55 | 54.9 | 48.9 | 79.1 | 140 | 195 | 59.2 | 36.1 | 38.2 |  | 195 |  | 1070 | BLQ | 22.8 | 0.2258 and 0.226 | > 2 | > 95 | remaining at 2 h, 3 μM [2]: 85%; half-life at 3 μM [2, 10]: > 2 h; concentration at 24 h ([3]; male, C57BL/6, mouse, plasma, po, p.o. 10 mg/kg, 24 h, BLQ = below LLOQ (0.58 ng/mL 2a, 0.62 ng/mL 16g), read-out: mean prodrug concentration in plasma): 0.87 ng/mL; half-life [3, 7]: 3.07 h; Tmax at 24 h [3, 8]: 2 h

From publication PMC11513920, “Building Metabolically Stable and Potent Anti-HIV Thioether-Lipid Analogues of Tenofovir Exalidex: A thorough Pharmacological Analysis” (Journal of Medicinal Chemistry, 2024)
